Read-outs that look alike come from different tables or passages of the source.
How the values were obtained:
Cyclin K = Cyclin K (Homo sapiens (Human), UniProt O75909); assay: Western blotting analysis of Cyclin K depletion in cell culture; type: cell-based; conditions: A673 cells, 1 μM test compound, 2 hours, absence and presence of 10 μM MLN4924
Method: A673 cells were incubated for 2 hours with of 1 μM compound in presence or in absence of 10 μM of the NAE (NEDD8 activating enzyme) inhibitor MLN4924 (Cell Signalling Technologies). Cells were washed 2× with cold Phosphate Buffered Saline (PBS, Sigma Aldrich), followed by the addition of lysis buffer for 15 minutes on ice before harvesting and centrifugation.
Protein content in the cell lysate was assessed by BCA assay (Thermo Fisher). Samples were then prepared with 4× Laemmlli Buffer (Bio-Rad) and heated to 95° C. for 5 minutes. Each sample was loaded onto a Mini-PROTEAN TGX Stain Free Gel (Bio-Rad) at 50 μg protein/well. SDS-PAGE was performed and then protein was transferred onto a PVDF membrane using a Trans-Blot® Turbo™ Midi PVDF Transfer Pack (Bio-Rad. Membranes were blocked in TBS-T (Invitrogen), 5% (w/v) milk powder (Marvel) overnight at 4° C.
Membranes were incubated with anti-CCNK antibody (rabbit) primary antibody (Abcam) and anti-GAPDH antibody (rabbit) in TBS-T for 2 hours. Membranes were then washed three times with TBS-T, before incubation secondary goat anti-rabbit HRP antibody (Cell Signalling Technologies) followed by 3× washing in TBS-T. Blots were imaged using a Chemidoc imager (Bio-Rad). Cyclin K depletion was measured as the observable drop in band intensity in compound treated samples relative to proteasome-inhibitor treated samples.
Cyclin K degradation was evaluated by Western blotting for cyclin K in A673 cells exposed to 1 μM test compound for 2 hours in the absence and presence of 10 μM MLN4924 (to inhibit proteosome activity).

Human CDK12 wt/CycK = Human CDK12 wt/CycK (Homo sapiens (Human), UniProt Q9NYV4); assay: Radiometric protein kinase assay (33PanQinase Activity Assay), CDK12; type: biochemical; conditions: for CDK7/CDK12: ratio of CDK7 IC50 to CDK12 IC50, greater than 1 indicates selectivity for CDK12
Outline: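 Radiometric 33P assay: ATP, test compound (in 10% DMSO) and premixed substrate/enzyme incubated 60 min at 30 °C, stopped with 2% H3PO4. 33Pi incorporation counted by scintillation; least-squares curve fit.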

A673 cells [1] = assay: A673 cytotoxic potency shift in the presence of MLN4924 (cyclin K degrader activity); type: cell-based; conditions: for Cyclin K Degrader Activity (A673 potency shift + MLN4924): 30 nM MLN4924, 72 hours; for Change of cytotoxic potency in the presence of MLN4924: 72 hours, presence and absence of 30 nM MLN4924
Method: Inhibition of cell viability by test compounds was assessed in A673 cells (ATCC CRL-1598) and the compound mode of action was attributed to a “molecular-glue”/cyclin K-degradation mechanism by probing for a loss of compound potency in the presence of the NEDD8-activating enzyme inhibitor, MLN4924.
Cells were plated in 96-well plates at a density of […] viable cells per well in 200 μL fully supplemented growth medium (DMEM+10% heat inactivated foetal bovine serum) and incubated for 24 hours in standard tissue culture conditions. Compounds, including MLN4924, were solubilised in DMSO and then diluted in fully supplemented growth medium at 2× their final assay concentration such that the final DMSO concentration was 0.1%. Growth medium in the assay plates was replaced with 50 μL of growth medium containing 2×MLN4924 (final assay concentration: 30 nM, where tested) or vehicle only and 50 μL of growth medium containing a 2× compound concentration series or vehicle only such that each compound was at 1× final assay concentration in 100 μL.
Cells were then incubated for 72 hours in standard tissue culture conditions before viability was assessed using 50 μL Cell Titer Glo reagent (Promega) per well and luminescence measured on an EnVision plate reader. Data were normalised to vehicle control (100%) and cells treated with 0.1% Triton x-100 for 1 hour before viability measurement (0%; full cell kill). IC50 values were determined using a semi-logistic curve fit with parameters “top” fixed at 100% and “bottom” at or below 0%. Viability curves generated in the presence of MLN4924 were normalised and fixed to controls treated with MLN4924.

Human CDK7/CycH/MAT1 = Human CDK7/CycH/MAT1 (Homo sapiens (Human), UniProt P50613); assay: Radiometric protein kinase assay (33PanQinase Activity Assay), CDK7; type: biochemical; conditions: ATP 3 μM
A673 cells [2] = assay: Cytotoxicity in A673 cells (Cell Titer Glo viability); type: cell-based; conditions: for Ratio of Biochemical Potency:Cellular Potency: CDK12 IC50 / A673 IC50; for IC50: Homo sapiens
Outline: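 Cells plated at 1.2×10^5 per well in DMEM+10% FBS, 24 h, then compound series ± MLN4924 (30 nM final) in 0.1% DMSO for 72 h. Viability by Cell Titer Glo luminescence, normalised to vehicle (100%) and 0.1% Triton x-100 (0%); MLN4924 curves normalised to MLN4924-treated controls.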

[3] = ATP 0.3 μM, read-out: CDK12 IC50
[4] = read-out: CKD12 Biochemical Potency IC50
[5] = A673, read-out: Cellular Potency IC50 (nM) (in A673 cells)
[6] = A673 cells, 72 hours, read-out: A673 IC50

Sequence of Human CDK12 wt/CycK (Q9NYV4 whole entry): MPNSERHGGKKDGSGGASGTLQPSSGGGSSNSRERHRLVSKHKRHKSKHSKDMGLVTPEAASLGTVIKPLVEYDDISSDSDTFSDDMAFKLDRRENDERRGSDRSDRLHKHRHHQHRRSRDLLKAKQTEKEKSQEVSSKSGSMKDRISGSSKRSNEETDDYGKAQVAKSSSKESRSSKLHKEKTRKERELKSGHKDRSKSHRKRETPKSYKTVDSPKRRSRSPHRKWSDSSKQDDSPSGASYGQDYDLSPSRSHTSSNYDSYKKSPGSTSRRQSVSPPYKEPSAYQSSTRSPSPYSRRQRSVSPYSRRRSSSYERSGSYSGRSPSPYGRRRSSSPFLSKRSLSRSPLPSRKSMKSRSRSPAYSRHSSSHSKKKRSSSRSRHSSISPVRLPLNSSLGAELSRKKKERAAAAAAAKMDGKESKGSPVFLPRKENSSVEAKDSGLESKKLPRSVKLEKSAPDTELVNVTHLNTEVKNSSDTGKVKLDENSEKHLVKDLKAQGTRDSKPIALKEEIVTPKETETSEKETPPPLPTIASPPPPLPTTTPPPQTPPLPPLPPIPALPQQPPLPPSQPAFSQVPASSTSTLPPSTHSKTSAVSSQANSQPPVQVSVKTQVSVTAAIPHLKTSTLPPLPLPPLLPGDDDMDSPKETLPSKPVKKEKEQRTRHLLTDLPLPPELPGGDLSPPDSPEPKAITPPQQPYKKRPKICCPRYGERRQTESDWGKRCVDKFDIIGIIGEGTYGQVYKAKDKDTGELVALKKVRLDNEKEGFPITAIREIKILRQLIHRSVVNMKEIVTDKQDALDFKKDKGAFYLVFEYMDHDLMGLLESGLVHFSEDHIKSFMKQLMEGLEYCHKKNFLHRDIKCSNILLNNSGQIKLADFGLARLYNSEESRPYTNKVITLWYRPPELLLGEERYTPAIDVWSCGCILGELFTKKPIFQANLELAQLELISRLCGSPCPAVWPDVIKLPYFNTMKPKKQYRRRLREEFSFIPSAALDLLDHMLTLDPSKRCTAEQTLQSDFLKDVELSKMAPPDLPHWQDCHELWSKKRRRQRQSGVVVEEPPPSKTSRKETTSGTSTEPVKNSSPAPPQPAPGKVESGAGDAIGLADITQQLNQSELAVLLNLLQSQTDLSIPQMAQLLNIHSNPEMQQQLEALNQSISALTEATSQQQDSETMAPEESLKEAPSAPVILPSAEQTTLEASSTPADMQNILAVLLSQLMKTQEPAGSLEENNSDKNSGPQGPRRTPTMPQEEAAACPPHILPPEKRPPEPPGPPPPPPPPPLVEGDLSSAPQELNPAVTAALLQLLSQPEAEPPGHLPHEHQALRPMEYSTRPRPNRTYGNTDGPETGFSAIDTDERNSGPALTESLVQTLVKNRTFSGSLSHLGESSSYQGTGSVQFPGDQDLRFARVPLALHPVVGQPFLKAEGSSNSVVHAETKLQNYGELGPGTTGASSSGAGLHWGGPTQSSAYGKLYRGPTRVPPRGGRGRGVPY
Sequence of Human CDK12 wt/CycK (O75909 whole entry partner): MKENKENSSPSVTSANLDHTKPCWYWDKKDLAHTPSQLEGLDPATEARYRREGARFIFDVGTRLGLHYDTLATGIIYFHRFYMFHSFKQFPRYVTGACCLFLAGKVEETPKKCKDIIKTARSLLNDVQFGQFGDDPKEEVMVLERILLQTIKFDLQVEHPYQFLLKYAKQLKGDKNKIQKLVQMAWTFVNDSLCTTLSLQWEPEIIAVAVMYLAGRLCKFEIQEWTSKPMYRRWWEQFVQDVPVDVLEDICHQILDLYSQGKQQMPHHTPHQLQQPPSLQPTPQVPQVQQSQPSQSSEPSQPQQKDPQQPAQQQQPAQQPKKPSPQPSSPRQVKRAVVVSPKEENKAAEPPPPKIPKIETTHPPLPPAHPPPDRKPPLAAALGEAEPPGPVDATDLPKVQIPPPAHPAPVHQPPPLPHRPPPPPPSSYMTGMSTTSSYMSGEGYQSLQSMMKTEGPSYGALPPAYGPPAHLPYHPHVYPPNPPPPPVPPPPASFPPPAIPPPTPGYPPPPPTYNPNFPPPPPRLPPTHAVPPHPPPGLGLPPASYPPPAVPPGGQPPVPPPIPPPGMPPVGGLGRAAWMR
Sequence of Human CDK7/CycH/MAT1 (P50613 whole entry): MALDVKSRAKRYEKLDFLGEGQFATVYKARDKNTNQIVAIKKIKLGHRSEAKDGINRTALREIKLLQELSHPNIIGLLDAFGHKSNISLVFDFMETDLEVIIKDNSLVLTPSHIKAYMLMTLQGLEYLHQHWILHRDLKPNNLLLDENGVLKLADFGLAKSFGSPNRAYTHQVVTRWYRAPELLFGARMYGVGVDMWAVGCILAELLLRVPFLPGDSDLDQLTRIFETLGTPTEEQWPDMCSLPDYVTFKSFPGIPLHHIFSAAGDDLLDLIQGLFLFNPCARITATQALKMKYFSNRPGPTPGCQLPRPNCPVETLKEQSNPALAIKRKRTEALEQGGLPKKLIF
Sequence of Human CDK7/CycH/MAT1 (P51946 whole entry partner): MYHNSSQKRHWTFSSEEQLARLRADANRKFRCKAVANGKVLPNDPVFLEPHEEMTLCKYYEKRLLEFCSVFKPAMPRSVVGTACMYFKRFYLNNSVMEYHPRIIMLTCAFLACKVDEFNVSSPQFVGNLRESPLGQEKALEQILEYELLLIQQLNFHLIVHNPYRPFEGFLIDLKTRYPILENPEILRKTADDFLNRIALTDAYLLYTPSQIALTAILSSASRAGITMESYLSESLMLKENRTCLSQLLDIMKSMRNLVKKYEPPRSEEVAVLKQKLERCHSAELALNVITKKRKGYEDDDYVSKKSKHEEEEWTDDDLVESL
Sequence of Human CDK7/CycH/MAT1 (P51948 whole entry partner): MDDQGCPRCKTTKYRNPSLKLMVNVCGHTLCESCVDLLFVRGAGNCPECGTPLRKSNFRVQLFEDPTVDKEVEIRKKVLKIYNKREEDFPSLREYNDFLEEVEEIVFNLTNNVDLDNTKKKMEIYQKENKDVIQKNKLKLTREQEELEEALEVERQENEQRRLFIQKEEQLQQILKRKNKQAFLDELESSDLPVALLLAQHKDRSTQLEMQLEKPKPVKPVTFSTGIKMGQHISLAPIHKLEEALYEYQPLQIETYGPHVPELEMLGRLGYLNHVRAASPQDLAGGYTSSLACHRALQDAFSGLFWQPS

Structure (SMILES) | Cyclin K degradation by Western blotting (Cyclin K) | IC50 (Human CDK12 wt/CycK; [3]) | CDK7/CDK12 (Human CDK12 wt/CycK) | IC50 (Human CDK12 wt/CycK; [4]) | Cyclin K Degrader Activity (A673 potency shift + MLN4924) (A673 cells [1]) | Change of cytotoxic potency in the presence of MLN4924 (A673 cells [1]) | IC50 (Human CDK7/CycH/MAT1) | Ratio of Biochemical Potency:Cellular Potency (A673 cells [2]) | IC50 (A673 cells [2]; [5]) | IC50 (A673 cells [2]; [6])
CCc1cnn2c(NCc3ccc(-c4ccccn4)cc3)cc(NC[C@H]3CCNC[C@@H]3O)nc12 [PPA-005, (3R,4R)-4-(((3-ethyl-7-((4-(pyridin-2-yl)benzyl)amino)pyrazolo[1,5-a]pyrimidin-5-yl)amino)methyl)piperidin-3-ol] | found to degrade Cyclin K | 0.034 µM | 3.3 | 0.034 µM | ++ (>2 and ≤5 fold change.) | a significant decrease in cytotoxic potency | 0.112 µM | 30.91 | 1.1 nM | 1.1 nM
CC[C@H](CO)Nc1nc(NCc2ccc(-c3ccccn3)cc2)c2ncn(C(C)C)c2n1 [CR8, reference compound] | did cause proteosomal dependent degradation of Cyclin K | – | – | – | – | a decrease in potency | – | – | 84.5 nM | 84.5 nM
c1ccc(-c2ccc(CNc3cc(OC4CNC4)nc4c(C5CC5)cnn34)cc2)nc1 [PPA-049] | – | 0.032 µM | 30.7 | 0.032 µM | +++ (>5 fold change.) | – | 0.982 µM | 4.64 | 6.9 nM | 6.9 nM
CC(C)c1cnn2c(NCc3ccc(-c4ccccc4)cc3)cc(NC[C@H]3CCNC[C@@H]3O)nc12 [PPA-004, (3R,4R)-4-(((7-(([1,1′-biphenyl]-4-ylmethyl)amino)-3-isopropylpyrazolo[1,5-a]pyrimidin-5-yl)amino)methyl)piperidin-3-ol] | – | 0.143 µM | 4.0 | 0.143 µM | +++ (>5 fold change.) | – | 0.576 µM | 22.70 | 6.3 nM | 6.3 nM
c1cnc(-c2ccc(CNc3cc(N[C@H]4CCCNC4)nc4c(C5CC5)cnn34)cc2)nc1 [PPA-089] | – | 0.028 µM | 9.8 | 0.028 µM | +++ (>5 fold change.) | – | 0.274 µM | 14.74 | 1.9 nM | 3.4 nM
c1ccc(-c2ccc(CNc3cc(N[C@H]4CCCNC4)nc4c(C5CC5)cnn34)cc2)nc1 [PPA-044] | – | 0.051 µM | 6.6 | 0.051 µM | +++ (>5 fold change.) | – | 0.338 µM | 18.89 | 2.7 nM | 2.7 nM
CN(c1cc(NCc2ccc(-c3ccccn3)cc2)n2ncc(C3CC3)c2n1)C1CCNCC1 [PPA-039] | – | 0.169 µM | 12.4 | 0.169 µM | + (>1 and ≤2 fold change.) | – | 2.09 µM | 60.36 | 2.8 nM | 2.8 nM
Clc1cnn2c(NCc3ccc(-c4ccccn4)cc3)cc(N[C@H]3CCCNC3)nc12 [PPA-093] | – | 0.031 µM | 7.2 | 0.031 µM | ++ (>2 and ≤5 fold change.) | – | 0.222 µM | 9.69 | 3.2 nM | 1.7 nM
N#Cc1cnn2c(NCc3ccc(-c4ccccc4)cc3)cc(N[C@H]3CCNC3)nc12 [PPA-085] | – | 0.023 µM | 29.3 | 0.023 µM | ++ (>2 and ≤5 fold change.) | – | 0.675 µM | 17.69 | 1.3 nM | 1.3 nM
CN(C)C/C=C/C(=O)Nc1ccc(C(=O)N2CCC[C@@H](Nc3ncc(Cl)c(-c4c[nH]c5ccccc45)n3)C2)cc1 [THZ-531, reference compound] | no protesomal dependent Cyclin K degradation | – | – | 0.16 µM | − (≤1 fold change.) | – | – | 0.74 | 210 nM | –
N#Cc1cnn2c(NCc3ccc(-c4ccccn4)cc3)cc(N[C@H]3CCCNC3)nc12 [PPA-092] | – | 0.013 µM | 18.1 | 0.013 µM | +++ (>5 fold change.) | – | 0.235 µM | 32.50 | 0.4 nM | 1 nM
c1ccc(-c2ccc(CNc3cc(O[C@H]4CCCNC4)nc4c(C5CC5)cnn34)cc2)nc1 [PPA-064] | – | 0.018 µM | 14.9 | 0.018 µM | +++ (>5 fold change.) | – | 0.268 µM | 15.00 | 1.2 nM | 1.2 nM
C1=C(c2cc(NCc3ccc(-c4ccccn4)cc3)n3ncc(C4CC4)c3n2)CNCC1 [PPA-088] | – | 0.06 µM | 12.7 | 0.06 µM | +++ (>5 fold change.) | – | 0.762 µM | 24.00 | 2.5 nM | 2.5 nM
c1ccc(-c2ccc(CNc3cc(N[C@H]4CCNC4)nc4c(C5CC5)cnn34)cc2)nc1 [PPA-037] | – | 0.028 µM | 8.9 | 0.028 µM | +++ (>5 fold change.) | – | 0.25 µM | 40.00 | 0.7 nM | 0.7 nM

Reference: patent US20240383900A1, “SUBSTITUTED PYRAZOLO [1,5-A]PYRIMIDINE-7-AMINE COMPOUNDS AS CDK INHIBITORS AND THEIR THERAPEUTIC USE” (Carrick Therapeutics Limited, priority 2021, published 2024)
